One compound from paper PMC10590419, “Structural and mechanistic insights into the inhibition of respiratory syncytial virus polymerase by a non-nucleoside inhibitor” (Communications Biology, 2023) can be followed below.

The term EC50 denotes the concentration needed to bring the measured effect to its halfway point. The IC50 is the concentration that inhibits the measured activity by half. Low readings indicate higher potency, high ones lower potency.

Series [1] relates to RSV A clinical isolates and laboratory strains. Briefly: Inhibition of RSV-A clinical isolates and laboratory strains, RT-qPCR, HeLa. The note with it: human respiratory syncytial virus, 10 strains, read-out: Median EC50. It counts as cell-based. Here is the method: Then, 100 µL of a HeLa cell suspension (5 × 10^4 cells/mL) in culture medium was added to each well. […] After 3 days of incubation, the supernatant was removed from wells. Plates were washed twice with ice-cold PBS (100 µL/well), and were then sealed and stored overnight at −80 °C. Next, 50 µL of lysis solution supplemented with DNAse was added to the plates and incubated for 5 min followed by the addition of 5 µL stop solution (Ambion Cell-to-CT bulk lysis reagent buffer). […] Roche) for cDNA synthesis. Reverse transcription was performed at 42 °C for 30 min, followed by denaturation at 95 °C for 5 min. […] The reaction consisted of a denaturation step (95 °C for 600 s), 45 cycles of denaturation (95 °C for 15 s) and annealing/elongation (60 °C for 60 s), and a step of cooling (40 °C for 10 s).
In general terms: Quantitative PCR measures a nucleic acid by following its amplification.

Series [2] has as its target human mitochondrial RNA polymerase (POLRMT) (Homo sapiens, UniProt O00411). Briefly: Mitochondrial RNA polymerase DdRp activity. It counts as biochemical. The method, then: to the method described previously 1. A 25 nM solution of RSV MTase-CTD protein or RSV L+P complex was incubated with 0.7 µM or 1.8 µM purified synthetic RNA 5’-Gppp […]
[…] (RSV9) for the MTase-CTD or L+P complex, respectively; 2 µM or 0.17 µM S-adenosyl methionine (SAM) for the MTase-CTD or L–P complex, respectively; and 0.1 µM or 0.8 µM 3H-SAM (Perkin Elmer) for the MTase-CTD or L–P complex, respectively; in 50 mM Tris-HCl pH 8.0. Compounds, previously dissolved in DMSO were added at a final concentration of 50 µM or 200 µM. After 3 h incubation at 30°C, reactions were quenched by a 20-fold dilution in ice cold water. […] They were then soaked with scintillation fluid (Perkin Elmer), and 3H-methyl transfer to the RNA substrates was determined using a Wallac MicroBeta TriLux Liquid Scintillation Counter. […]
Human DNA polymerases alpha (CHIMERx) at 5 U/ml, beta (CHIMERx) at 0.5 U/ml and gamma (Abcam) at 0.1 mg/ml were incubated with the tested inhibitors at specified concentrations, and a reaction mix composed of 62 µg/ml activated calf thymus DNA, dGTP (2 µM), dATP (2 µM), dCTP (2 µM), [ 3H]dTTP (0.05 µCi/µl), 0.1 mg/ml BSA and a buffer composed of Tris-HCl pH 8 (50 mM), MgCl 2 (5 mM), KCl (60 mM), and DTT (4 mM.) in a total volume of 50 µl. […] Radioactivity was measured via liquid scintillation counting (MicroScint-20, 40µl) on a TriLux apparatus. […]

In series [3] the test system is HMPV (recombinant CAN97-83-derived strain encoding GFP). Briefly: microbe, parasite or virus in culture. It counts as cell-based. The note with it: human metapneumovirus, LLC-MK2.
A short description of series [4]: in vitro. The note with it: human.

Chain of human mitochondrial RNA polymerase (POLRMT) (O00411 42-1230): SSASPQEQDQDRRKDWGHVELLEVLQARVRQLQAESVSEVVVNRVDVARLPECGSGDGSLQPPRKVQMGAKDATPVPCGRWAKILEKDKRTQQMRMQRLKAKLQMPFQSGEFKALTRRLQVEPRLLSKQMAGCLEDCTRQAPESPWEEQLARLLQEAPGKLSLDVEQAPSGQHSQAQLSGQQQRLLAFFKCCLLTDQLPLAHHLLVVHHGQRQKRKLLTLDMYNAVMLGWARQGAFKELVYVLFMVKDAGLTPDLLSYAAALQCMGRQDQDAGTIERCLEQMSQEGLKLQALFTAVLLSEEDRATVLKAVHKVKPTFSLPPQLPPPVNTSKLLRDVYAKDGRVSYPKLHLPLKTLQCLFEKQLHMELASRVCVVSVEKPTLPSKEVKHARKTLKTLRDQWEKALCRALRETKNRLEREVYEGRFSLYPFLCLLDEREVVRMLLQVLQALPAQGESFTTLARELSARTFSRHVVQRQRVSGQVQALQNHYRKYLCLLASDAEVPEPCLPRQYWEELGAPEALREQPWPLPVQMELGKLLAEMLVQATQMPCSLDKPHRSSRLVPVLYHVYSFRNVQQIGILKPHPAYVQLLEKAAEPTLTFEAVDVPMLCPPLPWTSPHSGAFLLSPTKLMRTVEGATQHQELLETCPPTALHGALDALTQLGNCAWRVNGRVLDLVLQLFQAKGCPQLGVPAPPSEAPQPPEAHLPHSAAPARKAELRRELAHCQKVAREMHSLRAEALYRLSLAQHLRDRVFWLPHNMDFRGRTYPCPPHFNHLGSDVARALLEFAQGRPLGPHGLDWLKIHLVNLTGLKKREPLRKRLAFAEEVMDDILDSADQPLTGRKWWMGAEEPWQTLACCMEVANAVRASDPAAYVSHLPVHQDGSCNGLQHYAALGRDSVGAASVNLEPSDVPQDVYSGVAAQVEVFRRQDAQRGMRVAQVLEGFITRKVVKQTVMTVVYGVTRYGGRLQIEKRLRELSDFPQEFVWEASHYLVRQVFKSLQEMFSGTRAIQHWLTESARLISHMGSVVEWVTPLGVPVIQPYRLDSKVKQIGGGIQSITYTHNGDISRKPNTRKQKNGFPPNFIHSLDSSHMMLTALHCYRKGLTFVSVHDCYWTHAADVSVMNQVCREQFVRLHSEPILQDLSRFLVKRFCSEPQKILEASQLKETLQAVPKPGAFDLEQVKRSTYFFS

With `COc1cc(C(=O)NC[C@](O)(c2cc(C(C)(C)O)c(F)c(-c3ccc(F)cc3)n2)C(F)(F)F)cc2cc(C)nnc12` [JNJ-8003], the figures for the EC50 in series [1] and in series [3] were 0.18 nM and 88 nM, respectively. Besides, the IC50 in series [2] is above 100000 nM. The compound further gave a CC50 in series [4] above 25000 nM.
